# Values quoted from earlier work, collected in patent US20220257802A1, “COMPRESSED SOLID COMPOSITION FOR MRI” (Ascelia Pharma AB, priority 2019, published 2022).
# Details: after oral intake
compound,measurement,value
[Mn+2] [manganese],first-pass effect in the liver,up to 98%
